Test results as given in patent publication US9688764B2, “Methods of treating breast cancer by administering anti-human prolactin receptor (PRLR) antibodies” (REGENERON PHARMACEUTICALS, INC., priority 2013, dated 2017).
Read-outs that look alike come from different tables or passages of the source.

Legend:
[1] = system: Ramos cells; assay: Cytotoxicity (cell viability, CCK8) assay; format: cell-based; settings: Table 28, 3 days
Description: (§1) Next, exemplary anti-IL-4R (H4H083P2) and anti-IL-6R (VV6A9-5) antibodies were conjugated to the cytotoxic drug DM1 and their potency in cytotoxicity assays was evaluated. Briefly, HEK293/IL-4R, Ramos or KG-1 cell lines, as well as HEK293 parental cells were seeded in PDL-coated 96-well plates at 1500 to 10,000 cells per well. ADCs or free DM1 (as the methyl disulfide derivative DM1-SMe) were added to the cells at final concentrations ranging from 300 nM to 15 pM and incubated for 3 days. Cells were incubated with CCK8 (Dojindo, Rockville, Md.) for the final 1-3 hours and the absorbance at 450 nm (OD450) was determined on a Flexstation3 (Molecular Devices, Sunnyvale, Calif.). Background OD450 values from digitonin (40 nM) treated cells were subtracted from all wells and viability was expressed as a percentage of the untreated controls. IC50 values were determined from a four-parameter logistic equation over a 10-point response curve (GraphPad Prism).

[2] = system: KG-1 cells; assay: Cytotoxicity (cell viability, CCK8) assay; format: cell-based; settings: Table 28, 3 days
Description: as §1

[3] = system: HEK293 parental cells; assay: Cytotoxicity (cell viability, CCK8) assay; format: cell-based; settings: Table 28, 3 days
Description: as §1

[4] = system: HEK293/IL-4R cells; assay: Cytotoxicity (cell viability, CCK8) assay; format: cell-based; settings: HEK293/hIL4R; Table 28; 3 days
Description: as §1

[5] = system: T47D cells; assay: Cell viability (cell kill) assay; format: cell-based; settings: T47D; for IC50: read-out: IC50
Outline: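 T47D cells grown overnight, then exposed 3 days to anti-PRLR ADCs (DM1 via non-cleavable SMCC linker, or other maytansinoid toxins) or free DM1-SMe, 500 nM to 5 pM. Viability by CCK8 OD450, digitonin background subtracted, as % of untreated; IC50 from 10-point four-parameter fit. PRL (15 nM) co-incubation tested separately.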

[6] = system: HEK293 (293) cells; assay: Cell viability (cell kill) assay; format: cell-based; settings: 293
Outline: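 Anti-PRLR–DM1 ADCs (non-cleavable SMCC linker) or free DM1-SMe, 500 nM to 5 pM for 3 days on parental or hPRLR-overexpressing lines. HEK293: CCK8 OD450; MCF7: Hoechst nuclear counts by imaging.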

[7] = system: SK-BR-3 cells; assay: Cell viability (cell kill) assay; format: cell-based; settings: Table 16
[8] = system: MCF7/hPRLR (MCF7/PRLR) cells; assay: Cell viability (cell kill) assay, nuclear counts; format: cell-based, human
Outline: (§2)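 Anti-PRLR ADCs or free DM1-SMe were added at 500 nM to 5 pM final to cells seeded overnight and were incubated 3 days. MCF7 lines were fixed with 4% formaldehyde plus Hoechst 33342, and nuclei were counted by imaging, with digitonin […] background subtracted. Viability was expressed as % of untreated cells, and IC50 was obtained from a 4-parameter fit of a 10-point curve.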

[9] = system: NCI-N87 cells; assay: Cell viability (cell kill) assay; format: cell-based; settings: Table 17
Description: (§3) PRLR-overexpressing cells, including HEK293, PC3, MCF7 and NCI-N87, were generated to assess the ability of anti-PRLR conjugated antibodies to reduce cell viability. For comparative purposes, PC3 and T47D cells with overexpressed ErbB2 were also generated, as well as an MCF7 cell line over-expressing both hPRLR and hErbB2. Briefly, Lipofectamine® 2000-mediated transfection methodology was utilized to generate HEK293 cells expressing human PRLR (HEK293/hPRLR) or human ErbB2 (HEK293/hErbB2). Lipofectamine LTX with Plus Reagent was used to generate PC3 cells expressing human PRLR (PC3/hPRLR) or human ErbB2 (PC3/hErbB2). Lentiviral-mediated transduction was utilized to generate MCF7 cells expressing human PRLR (MCF7/hPRLR), NCI-N87 cells expressing human PRLR (NCI-N87/hPRLR), T47D cells over-expressing human ErbB2 (T47D/hErbB2), and MCF7 cells expressing both human PRLR and human ErbB2 (MCF7/hPRLR/hErbB2). All lines were selected for at least two weeks in complete growth media plus appropriate selection reagents. Stably expressing populations were enriched for PRLR expression via FACS using the anti PRLR antibody Control I.
(§4) Next, the ability of anti-PRLR-DM1 antibody-drug conjugates (i.e., anti-PRLR antibodies conjugated to DM1 via a non-cleavable linker [SMCC]) to reduce cell viability was determined using in vitro cell based assays. Cells were seeded in PDL-coated 96 well plates at 1500 to 10000 cells per well in complete growth media and allowed to grow overnight. For cell viability curves, ADCs or free DM1 (as the methyl disulfide derivative DM1-SMe) were added to the cells at final concentrations ranging from 500 nM to 5 pM and incubated for 3 days. The 293, PC3 and T47D cells were incubated with CCK8 (Dojindo, Rockville, Md.) for the final 1-3 hours and the absorbance at 450 nm (OD450) was determined on a Flexstation3 (Molecular Devices, Sunnyvale, Calif.). MCF7 cells were treated with Hoechst 33342 nuclear stain while being fixed with 4% formaldehyde. Images were acquired on the ImageXpress micro XL (Molecular Devices, Sunnyvale, Calif.) and nuclear counts were determined via Columbus image analysis software (Perkin Elmer, Shelton, Conn.). Background OD450 values (PC3, 293, and T47D) or nuclear counts (MCF7) from digitonin (40 nM) treated cells was subtracted from all wells and viability was expressed as a percentage of the untreated controls. IC50 values were determined from a four-parameter logistic equation over a 10-point response curve (GraphPad Prism).
The potency of anti-PRLR conjugated antibodies compared with a similarly conjugated antibody to the co-expressed ErbB2 cell surface target was also assessed. […]

[10] = system: PC3 cells; assay: Cell viability (cell kill) assay; format: cell-based
Outline: (§5)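 PC3 and PC3/hPRLR (lipofection-generated, FACS-enriched for PRLR) cells exposed 3 days to anti-PRLR ADCs or free DM1-SMe, 500 nM to 5 pM. Viability by CCK8 OD450, digitonin background subtracted, as % of untreated; IC50 from four-parameter fit of 10-point curves.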

[11] = system: PC3/hPRLR cells; assay: Cell viability (cell kill) assay; format: cell-based, human; settings: PC3/PRLR
Outline: as §5

[12] = system: MCF7 (MCF7/ATCC) cells; assay: Cell viability (cell kill) assay, nuclear counts; format: cell-based; settings: MCF7
Outline: as §2

[13] = system: HEK293/hPRLR (293/hPRLR) cells; assay: Cell viability (cell kill) assay; format: cell-based, human; settings: 293/PRLR; for IC50: read-out: IC50
Description: as §3, §4

[14] = system: PC3/hErbB2 cells; assay: Cell viability (cell kill) assay; format: cell-based, human; settings: PC3/ErbB2; Table 15
Description: as §3, §4
(§6) The potency of anti-PRLR conjugated antibodies compared with a similarly conjugated antibody to the co-expressed ErbB2 cell surface target was also assessed. Both PRLR and ErbB2 are expressed in a majority of breast cancers, and anti-ErbB2 antibodies conjugated to DM1 have shown clinical efficacy in targeting ErbB2 (+) breast cancer (Hurvitz et al; 2013).

[15] = system: MCF7/hPRLR/hErbB2 cells; assay: Cell viability (cell kill) assay; format: cell-based, human; settings: MCF/PRLR + ErbB2; Table 17
Description: as §3, §4, §6

[16] = system: HEK293/hErbB2 cells; assay: Cell viability (cell kill) assay; format: cell-based, human; settings: 293/ErbB2; Table 14
Description: as §3, §4, §6

[17] = system: T47D/hErbB2 cells; assay: Cell viability (cell kill) assay; format: cell-based, human; settings: T47D/ErbB2; Table 16
Description: as §3, §4, §6

[18] = system: NCI-N87/hPRLR cells; assay: Cell viability (cell kill) assay; format: cell-based, human; settings: NCI-N87/PRLR; Table 17
Description: as §3, §4, §6

**Q.** Which results are given for `COc1cc2cc(c1Cl)N(C)C(=O)C[C@H](OC(=O)[C@H](C)N(C)C(=O)CCS)[C@]1(C)O[C@H]1[C@H](C)[C@@H]1C[C@@](O)(NC(=O)O1)[C@H](OC)/C=C/C=C(\C)C2` [DM1 (Free Drug)]?
**A.** % Kill [1]: 100%; IC50 [1]: 0.34 nM; % Kill [2]: 89%; IC50 [2]: 1.26 nM; % Kill [3]: 100%; IC50 [3]: 0.27 nM; % Kill [4]: 98%; IC50 [4]: 0.33 nM

**Q.** Which “% Kill” value ([5]; Table 12, 3 days) does the source give for `COc1cc2cc(c1Cl)N(C)C(=O)C[C@H](OC(=O)[C@H](C)N(C)C(=O)CCS)[C@]1(C)O[C@H]1[C@H](C)[C@@H]1C[C@@](O)(NC(=O)O1)[C@H](OC)/C=C/C=C(\C)C2` [DM1 (free drug)] here?
**A.** The value was 86%.

**Q.** What about the IC50 ([5]; Table 12, 3 days) of the same compound?
**A.** The IC50 was 0.45 nM.

**Q.** And the “% Kill” value ([5]; Table 16)?
**A.** Its value is 80%.

**Q.** What about the IC50 ([5]; Table 16) of the same compound?
**A.** The IC50 was 0.21 nM.

**Q.** And the “% Kill” value ([6]; Table 11, 3 days)?
**A.** Its value is 98%.

**Q.** What about the IC50 ([6]; Table 11, 3 days) of the same compound?
**A.** The IC50 was 0.27 nM.

**Q.** What about the “% Kill” value ([6]; Table 14) of the same compound?
**A.** The value was 95%.

**Q.** And the IC50 ([6]; Table 14)?
**A.** The IC50 was 0.5 nM.

**Q.** And the “% Kill” value [7]?
**A.** The value was 74%.

**Q.** What about the IC50 [7] of the same compound?
**A.** The IC50 was 0.39 nM.

**Q.** And the “% Kill” value ([8]; Table 12, 3 days)?
**A.** Its value is 88%.

**Q.** What about the IC50 ([8]; Table 12, 3 days) of the same compound?
**A.** Its IC50 is 1.47 nM.

**Q.** What about the “% Kill” value ([8]; Table 17) of the same compound?
**A.** The value was 79%.

**Q.** What about the IC50 ([8]; Table 17) of the same compound?
**A.** Its IC50 is 1.85 nM.

**Q.** And the “% Kill” value [9]?
**A.** The value was 95%.

**Q.** And the IC50 [9]?
**A.** Its IC50 is 0.84 nM.

**Q.** And the “% Kill” value ([10]; Table 11, 3 days)?
**A.** The value was 91%.

**Q.** And the IC50 ([10]; Table 11, 3 days)?
**A.** The IC50 was 0.47 nM.

**Q.** What about the “% Kill” value ([10]; Table 15) of the same compound?
**A.** Its value is 88%.

**Q.** And the IC50 ([10]; Table 15)?
**A.** The IC50 was 0.44 nM.

**Q.** And the “% Kill” value ([11]; Table 11, 3 days)?
**A.** The value was 80%.

**Q.** What about the IC50 ([11]; Table 11, 3 days) of the same compound?
**A.** The IC50 was 0.59 nM.

**Q.** What about the “% Kill” value ([11]; Table 15) of the same compound?
**A.** The value was 82%.

**Q.** What about the IC50 ([11]; Table 15) of the same compound?
**A.** The IC50 was 0.24 nM.

**Q.** And the “% Kill” value ([12]; Table 12, 3 days)?
**A.** The value was 83%.

**Q.** What about the IC50 ([12]; Table 12, 3 days) of the same compound?
**A.** The IC50 was 1.17 nM.

**Q.** What about the “% Kill” value ([12]; Table 16) of the same compound?
**A.** The value was 78%.

**Q.** And the IC50 ([12]; Table 16)?
**A.** Its IC50 is 0.54 nM.

**Q.** What about the “% Kill” value ([13]; Table 11, 3 days) of the same compound?
**A.** The value was 97%.

**Q.** And the IC50 ([13]; Table 11, 3 days)?
**A.** Its IC50 is 0.36 nM.

**Q.** What about the “% Kill” value ([13]; Table 14) of the same compound?
**A.** Its value is 95%.

**Q.** And the IC50 ([13]; Table 14)?
**A.** Its IC50 is 0.82 nM.

**Q.** And the “% Kill” value [14]?
**A.** Its value is 85%.

**Q.** What about the IC50 [14] of the same compound?
**A.** The IC50 was 0.42 nM.

**Q.** What about the “% Kill” value [15] of the same compound?
**A.** Its value is 77%.

**Q.** What about the IC50 [15] of the same compound?
**A.** Its IC50 is 0.82 nM.

**Q.** And the “% Kill” value [16]?
**A.** Its value is 100%.

**Q.** What about the IC50 [16] of the same compound?
**A.** Its IC50 is 0.26 nM.

**Q.** And the “% Kill” value [17]?
**A.** The value was 71%.

**Q.** What about the IC50 [17] of the same compound?
**A.** The IC50 was 0.18 nM.

**Q.** What about the “% Kill” value [18] of the same compound?
**A.** The value was 98%.

**Q.** What about the IC50 [18] of the same compound?
**A.** The IC50 was 1.45 nM.
